Activity and Bmax data for 1 molecule are collected here from ChEMBL document CHEMBL1139647, “Synthesis and biological characterization of [3H] (2-amino-4,5,6,7-tetrahydrobenzo[b]thiophen-3-yl)-(4-chlorophenyl)-methanone, the first radiolabelled adenosine A1 allosteric enhancer” (Bioorg Med Chem Lett, 2006).

Molecules are shown by their SMILES. Calls of active or inactive are those of the source. The rule behind the calls is not given here.

Assay [1] deals with T1, Adenosine receptor A1 (Homo sapiens) (UniProt P30542).
T1 sequence (whole entry): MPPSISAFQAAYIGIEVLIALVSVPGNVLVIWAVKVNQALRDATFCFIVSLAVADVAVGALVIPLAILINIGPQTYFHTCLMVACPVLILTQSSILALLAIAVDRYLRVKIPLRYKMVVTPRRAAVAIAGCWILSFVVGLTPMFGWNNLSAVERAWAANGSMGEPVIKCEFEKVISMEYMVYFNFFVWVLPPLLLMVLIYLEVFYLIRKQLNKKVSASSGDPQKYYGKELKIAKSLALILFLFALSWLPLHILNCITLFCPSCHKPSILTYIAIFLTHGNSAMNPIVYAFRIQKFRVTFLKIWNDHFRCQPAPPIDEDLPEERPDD
Put plainly: Activity measured by decrease in cAMP content employing CHO cells expressing human A1 receptor at 10 uM. The arrangement: scale not given: the % may be the effect or the level left. The format is functional, cell-based.

In assay [2] the target is T1, Adenosine receptor A1 (Homo sapiens). Kind of assay: Increase in agonist-specific binding of [3H]CCPA to human adenosine A1 receptor in CHO membranes. The format is functional, cell membranes.
The target of assay [3] is T2, Adenosine receptor A1 (Rattus norvegicus) (UniProt P25099).
T2 sequence (whole entry): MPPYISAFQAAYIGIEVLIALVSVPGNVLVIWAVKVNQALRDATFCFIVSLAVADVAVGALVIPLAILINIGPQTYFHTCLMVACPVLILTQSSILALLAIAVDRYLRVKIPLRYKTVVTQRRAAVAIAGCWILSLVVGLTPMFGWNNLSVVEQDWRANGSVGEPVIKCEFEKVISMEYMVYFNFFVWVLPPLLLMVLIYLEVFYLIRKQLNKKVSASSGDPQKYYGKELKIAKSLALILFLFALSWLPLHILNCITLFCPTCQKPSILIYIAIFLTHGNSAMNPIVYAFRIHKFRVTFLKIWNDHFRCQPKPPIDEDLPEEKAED
Put plainly: Increase in agonist-specific binding of [3H]CCPA to adenosine A1 receptor in rat cortex. The format is functional.

Assay [4] addresses T1, Adenosine receptor A1 (Homo sapiens). Kind of assay: Increase in agonist-specific binding of [3H]CCPA to human adenosine A1 receptor in human brain membranes. As to conditions: Membrane. The format is functional, cell membranes.
Assay [5] shares this target. Put plainly: Increase in Bmax for binding of [3H]CCPA to human adenosine A1 receptor in CHO membranes. Format: cell membranes.
In assay [6] the target is T2, Adenosine receptor A1 (Rattus norvegicus). Put plainly: Increase in Bmax for binding of [3H]CCPA to adenosine A1 receptor in rat cortex.
The target of assay [7] is T1, Adenosine receptor A1 (Homo sapiens). Kind of assay: Increase in Bmax for binding of [3H]CCPA to human adenosine A1 receptor in human brain membrane. Format: cell membranes.
For assay [8], the target named is Adenosine receptor A2a (Homo sapiens) (UniProt P29274). Kind of assay: Increase in binding of [3H]CGS 21680 to human adenosine A2A receptor in CHO membranes. The format is cell membranes.
Sequence of Adenosine receptor A2a (Homo sapiens) (P29274 whole entry): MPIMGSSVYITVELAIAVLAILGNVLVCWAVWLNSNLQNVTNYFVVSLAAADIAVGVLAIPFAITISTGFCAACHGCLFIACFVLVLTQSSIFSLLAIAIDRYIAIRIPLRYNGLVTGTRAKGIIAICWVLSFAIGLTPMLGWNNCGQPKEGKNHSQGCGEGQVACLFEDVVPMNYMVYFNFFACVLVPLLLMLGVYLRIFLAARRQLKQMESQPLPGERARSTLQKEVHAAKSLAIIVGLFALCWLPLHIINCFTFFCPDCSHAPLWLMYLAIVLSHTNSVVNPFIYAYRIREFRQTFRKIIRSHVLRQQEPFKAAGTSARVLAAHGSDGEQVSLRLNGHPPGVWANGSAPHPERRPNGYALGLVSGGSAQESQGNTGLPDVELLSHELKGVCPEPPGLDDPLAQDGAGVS
Assay [9] has as its target T3, Adenosine receptor A3 (Homo sapiens) (UniProt P0DMS8).
T3 sequence (whole entry): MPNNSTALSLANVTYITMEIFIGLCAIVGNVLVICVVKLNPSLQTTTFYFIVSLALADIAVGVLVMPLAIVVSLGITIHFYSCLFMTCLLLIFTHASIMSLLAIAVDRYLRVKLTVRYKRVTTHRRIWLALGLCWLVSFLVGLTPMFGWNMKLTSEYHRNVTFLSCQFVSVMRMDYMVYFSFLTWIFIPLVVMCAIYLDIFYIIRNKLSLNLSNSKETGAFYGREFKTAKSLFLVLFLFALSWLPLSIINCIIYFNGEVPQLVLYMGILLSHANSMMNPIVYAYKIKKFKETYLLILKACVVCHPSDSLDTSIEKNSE
Put plainly: Increase in binding of [125I]AB-MECA to human adenosine A3 receptor in CHO membranes. Format: cell membranes.

Assay [10] concerns the target T1, Adenosine receptor A1 (Homo sapiens). Kind of assay: Binding density to adenosine A1 receptor in CHO membranes. Format: cell membranes. As to conditions: tested as the 3H-labelled form.

For the molecule `Nc1sc2c(c1C(=O)c1ccc(Cl)cc1)CCCC2`, the Activity came to 55% in [1]; 51% in assay [2]; 15% in [3]; 22% in assay [4]; 65% in assay [5]; 15% in assay [6]. The Activity in assay [7] came out at 23%. Besides, the result in assay [8] and in assay [9] was inactive. The molecule further came in with a Bmax in [10] of 76.5 pmol/mg.
